This is an account of results in patent US20170056504A1, “METHOD OF EXTENDING HALF-LIFE OF CRYSTALINE ANTIBODIES” (priority 2015, published 2017).

Series [1] relates to Substance P and nerve growth factor (NGF). Kind of series: Pregabalin-mediated suppression of pain associated factors with lactulose-generated hydrogen. The format is in vivo. As to conditions: hydrogen generated by lactulose, mice.
Another series has as its target PCSK9 (Mus musculus, UniProt Q80W65). Kind of series: LDL level in blood serum of mice that received xPCSK9 mAb and/or lactulose. As to conditions: oral lactulose alone without xPCSK9 mAb, Day 7. The series is classed as in vivo, C57BL6 mice. Also noted: endogenous in cells; host or cells: C57BL6 mice, in vivo (circulating PCSK9 of the animal). As to the method:
At Day 0, anti-PCSK9-mAb was systemically administrated (30 mg/kg in PBS, i.v.) to the FcRn gene knockout mice or their wild type C57BL/6 mice (8 w old male). Lactulose (30%, water solution) was orally administered using a Popper's feeding needle once in a day throughout the experiment. In some experiment, groups of mice received antibiotics cocktail (Ampicillin, 2 mg/ml; Vancomycin, 1 mg/ml, Metronidazole 2 mg/ml and Neomycin, 2 mg/ml) ad libitum for 7 days. Blood was collected from mice at Day 1 and Day 7 (100 ul/mouse) by retro-orbital bleeding. The serum was separated from the collected blood and saved at −70 C until the measurement of anti-PCSK9-mAb as well as low-density lipoprotein (LDL) cholesterol in the sampled serum. […] The amount of LDL/VLDL in the serum was monitored using a HDL and LDL/VLDL Quantitation Kit (Sigma-Aldrich). The amount of anti-PCSK9-mAb in serum, liver, small and large intestines were measured using the ELISA as described above #1. […]
From Day-0 to Day 7, Lactulose (50% water solution, 0.2 ml/mouse) or control water (0.2 ml/mouse) was orally administered once/day. […] At Day 0, prior to any administrations, and Day 7, blood serum was collected and the concentration of LDL was monitored using LDL detection kit (Sigma).

The nature of series [2]: Lactulose with antibiotics cocktail: xPCSK9 mAb serum half-life and large intestine pH. The series is classed as in vivo, C57BL6 mice. As to conditions: with antibiotics cocktail in drinking water.
Procedure: At Day 0, anti-PCSK9-mAb was systemically administrated (30 mg/kg in PBS, i.v.) to the FcRn gene knockout mice or their wild type C57BL/6 mice (8 w old male). Lactulose (30%, water solution) was orally administered using a Popper's feeding needle once in a day throughout the experiment. In some experiment, groups of mice received antibiotics cocktail (Ampicillin, 2 mg/ml; Vancomycin, 1 mg/ml, Metronidazole 2 mg/ml and Neomycin, 2 mg/ml) ad libitum for 7 days. Blood was collected from mice at Day 1 and Day 7 (100 ul/mouse) by retro-orbital bleeding. The serum was separated from the collected blood and saved at −70 C until the measurement of anti-PCSK9-mAb as well as low-density lipoprotein (LDL) cholesterol in the sampled serum. At Day 7, right after the collection of blood, mice were sacrificed, and liver, small intestine (distal portion, 2 cm above cecum) and large intestine (proximal colon, 1 cm below cecum) were collected. […] The amount of LDL/VLDL in the serum was monitored using a HDL and LDL/VLDL Quantitation Kit (Sigma-Aldrich). The amount of anti-PCSK9-mAb in serum, liver, small and large intestines were measured using the ELISA as described above #1. […] In FIG. 11B, content of large intestine sampled from sacrificed mice was suspended in water (0.1 g/1 ml) and the pH was monitored.
The nature of series [3]: Mouse model of high fat diet induced hyperlipidemia (another study). The series is classed as in vivo.

Sequence of PCSK9 (Q80W65 156-694): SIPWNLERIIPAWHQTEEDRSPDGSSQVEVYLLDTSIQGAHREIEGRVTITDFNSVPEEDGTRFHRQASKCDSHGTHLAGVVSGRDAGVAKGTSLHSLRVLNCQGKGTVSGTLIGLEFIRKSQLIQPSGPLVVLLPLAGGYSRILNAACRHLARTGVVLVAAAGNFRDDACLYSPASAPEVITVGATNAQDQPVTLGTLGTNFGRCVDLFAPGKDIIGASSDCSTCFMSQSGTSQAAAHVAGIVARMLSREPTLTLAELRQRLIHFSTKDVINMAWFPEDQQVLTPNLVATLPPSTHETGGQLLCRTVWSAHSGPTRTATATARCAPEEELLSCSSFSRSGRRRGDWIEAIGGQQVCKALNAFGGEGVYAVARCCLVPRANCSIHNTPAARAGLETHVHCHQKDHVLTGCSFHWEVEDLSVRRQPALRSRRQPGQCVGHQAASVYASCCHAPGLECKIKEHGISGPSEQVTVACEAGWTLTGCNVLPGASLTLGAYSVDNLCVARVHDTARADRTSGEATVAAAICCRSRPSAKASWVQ

As for `OC[C@H]1O[C@@H](O[C@@H]2[C@@H](CO)OC(O)(CO)[C@H]2O)[C@H](O)[C@@H](O)[C@H]1O` (mixture of isomers) [lactulose], the “effect on pregabalin-mediated suppression of Substance P and NGF” value in series [1] is “additive effect”. Also, the “LDL level in blood serum versus base line (Day 0)” value on PCSK9 was “did not show any changes from the base line level”. The “effect of lactulose on extending the serum half-life of xPCSK9 mAb” value in series [2] is recorded as “abolished”. Moreover, the “oxidized LDL (oxLDL)” value in series [3] is “can suppress”.
